The source made the active and inactive calls.
How the values were obtained:
Format in all cases: functional
[1] = target: Serine/threonine-protein kinase Chk1 (Homo sapiens, UniProt O14757);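 further: measured as one member of a kinome-wide kinase profiling panel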
[2] = target: BDNF/NT-3 growth factors receptor (Homo sapiens, UniProt Q16620);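 further: NTRK2 measured as one member of a broad kinome-wide kinase profiling panel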
[3] = target: Cyclin-dependent kinase 9 (Homo sapiens, UniProt P50750);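 further: value from the CDK9 entry of a kinome-spanning kinase panel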
[4] = target: Serine/threonine-protein kinase pim-1 (Homo sapiens, UniProt P11309)
[5] = target: ALK tyrosine kinase receptor (Homo sapiens, UniProt Q9UM73);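 further: ALK tested as one member of a kinase panel screen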
[6] = target: Cyclin-dependent kinase 8 (Homo sapiens, UniProt P49336); assay: Navigating the Kinome. Panel member name: CDK8
[7] = target: Platelet-derived growth factor receptor beta (Homo sapiens, UniProt P09619);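 further: value comes from a kinome panel, with PDGFRB tested as one panel member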
[8] = target: Glycogen synthase kinase-3 alpha (Homo sapiens, UniProt P49840);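 further: GSK3A result taken from a broad kinome-wide kinase panel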
[9] = target: High affinity nerve growth factor receptor (Homo sapiens, UniProt P04629);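 further: NTRK1 tested as one member of a kinome-wide profiling panel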
[10] = target: Receptor-type tyrosine-protein kinase FLT3 (Homo sapiens, UniProt P36888);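 further: FLT3 was tested as one member of a kinome-wide kinase panel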
[11] = target: Tyrosine-protein kinase ABL1 (Homo sapiens, UniProt P00519)
[12] = target: Leucine-rich repeat serine/threonine-protein kinase 2 (Homo sapiens, UniProt Q5S007);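 further: value from a broad kinome-wide panel profiling study in which LRRK2 was one of the kinases tested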
[13] = target: Casein kinase I isoform alpha (Homo sapiens, UniProt P48729)
[14] = target: Dual specificity tyrosine-phosphorylation-regulated kinase 1A (Homo sapiens, UniProt Q13627);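 further: measured against DYRK1A as one member of a broad kinome profiling panel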
Activated CDC42 kinase 1 = Activated CDC42 kinase 1 (Homo sapiens, UniProt Q07912); assay: Navigating the Kinome. Panel member name: ACK1
[15] = target: Tyrosine-protein kinase receptor TYRO3 (Homo sapiens, UniProt Q06418);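 further: TYRO3 value obtained as one member of a kinome-wide profiling panel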
Activin receptor type-1 = Activin receptor type-1 (Homo sapiens, UniProt Q04771); assay: Navigating the Kinome. Panel member name: ACVR1
[16] = target: Serine/threonine-protein kinase TBK1 (Homo sapiens, UniProt Q9UHD2); assay: Navigating the Kinome. Panel member name: TBK1
[17] = target: Fibroblast growth factor receptor 1 (Homo sapiens, UniProt P11362)
[18] = target: Cyclin-dependent kinase 7 (Homo sapiens, UniProt P50613);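 further: value comes from a kinome-wide kinase profiling panel in which CDK7 is one member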
[19] = target: Tyrosine-protein kinase BTK (Homo sapiens, UniProt Q06187)
[20] = target: cAMP-dependent protein kinase catalytic subunit alpha (Homo sapiens, UniProt P17612)
[21] = target: Ribosomal protein S6 kinase alpha-3 (Homo sapiens, UniProt P51812);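 further: measured within a kinome-wide profiling panel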
[22] = target: Vascular endothelial growth factor receptor 2 (Homo sapiens, UniProt P35968)
[23] = target: Death-associated protein kinase 3 (Homo sapiens, UniProt O43293);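 further: measured as one member of a kinome-wide profiling panel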
[24] = target: Insulin-like growth factor 1 receptor (Homo sapiens, UniProt P08069); assay: Navigating the Kinome. Panel member name: IGF1R
[25] = target: Tyrosine-protein kinase Fyn (Homo sapiens, UniProt P06241)
[26] = target: Dual specificity mitogen-activated protein kinase kinase 1 (Homo sapiens, UniProt Q02750); assay: Navigating the Kinome. Panel member name: MAP2K1
Aurora kinase A = Aurora kinase A (Homo sapiens, UniProt O14965);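 further: value from the Navigating the Kinome kinase panel profiling, panel entry STK6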
[27] = target: Serine/threonine-protein kinase Nek2 (Homo sapiens, UniProt P51955)
Aurora kinase B = Aurora kinase B (Homo sapiens, UniProt Q96GD4)
[28] = target: Serine/threonine-protein kinase TAO1 (Homo sapiens, UniProt Q7L7X3)
[29] = target: Tyrosine-protein kinase Lck (Homo sapiens, UniProt P06239);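 further: lck was assayed as one member of a kinase panel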
[30] = target: Protein kinase C theta type (Homo sapiens, UniProt Q04759); assay: Navigating the Kinome. Panel member name: PRKCQ
[31] = target: Calcium/calmodulin-dependent protein kinase type II subunit alpha (Homo sapiens, UniProt Q9UQM7); assay: Navigating the Kinome. Panel member name: CAMK2A
[32] = target: Serine/threonine-protein kinase PAK 4 (Homo sapiens, UniProt O96013);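 further: value obtained within a kinome profiling panel in which PAK4 was one of the panel members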
[33] = target: cAMP-dependent protein kinase catalytic subunit PRKX (Homo sapiens, UniProt P51817)
[34] = target: Serine/threonine-protein kinase D3 (Homo sapiens, UniProt O94806);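 further: determined within a kinase panel screen, with PRKCN as the panel member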
[35] = target: Mitogen-activated protein kinase kinase kinase kinase 4 (Homo sapiens, UniProt O95819)
[36] = target: Inhibitor of nuclear factor kappa-B kinase subunit epsilon (Homo sapiens, UniProt Q14164); assay: Navigating the Kinome. Panel member name: IKBKE
[37] = target: Leukocyte tyrosine kinase receptor (Homo sapiens, UniProt P29376); assay: Navigating the Kinome. Panel member name: LTK
[38] = target: Macrophage-stimulating protein receptor (Homo sapiens, UniProt Q04912); assay: Navigating the Kinome. Panel member name: MST1R
[39] = target: Dual specificity protein kinase CLK2 (Homo sapiens, UniProt P49760)
LIM domain kinase 1 = LIM domain kinase 1 (Homo sapiens, UniProt P53667); assay: Navigating the Kinome. Panel member name: LIMK1
[40] = target: Vascular endothelial growth factor receptor 1 (Homo sapiens, UniProt P17948);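 further: measured within a kinome-wide profiling panel, FLT1 as the panel member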
[41] = target: Macrophage colony-stimulating factor 1 receptor (Homo sapiens, UniProt P07333);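 further: value comes from the Navigating the Kinome screening panel, CSF1R member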
[42] = target: Platelet-derived growth factor receptor alpha (Homo sapiens, UniProt P16234); assay: Navigating the Kinome. Panel member name: PDGFRA
[43] = target: 5'-AMP-activated protein kinase catalytic subunit alpha-1 (Homo sapiens, UniProt Q13131)
[44] = target: Dual specificity mitogen-activated protein kinase kinase 2 (Homo sapiens, UniProt P36507); assay: Navigating the Kinome. Panel member name: MAP2K2
[45] = target: Tyrosine-protein kinase JAK2 (Homo sapiens, UniProt O60674);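 further: JAK2 tested as one member of a kinase panel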
[46] = target: Mitogen-activated protein kinase 8 (Homo sapiens, UniProt P45983);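 further: value comes from one member of a kinome-wide kinase profiling panel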
[47] = target: Glycogen synthase kinase-3 beta (Homo sapiens, UniProt P49841);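 further: value comes from a broad kinome profiling panel, with GSK3B as the panel member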
Focal adhesion kinase 1 = Focal adhesion kinase 1 (Homo sapiens, UniProt Q05397);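 further: measured as one member of a kinome panel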
[48] = target: Dual specificity tyrosine-phosphorylation-regulated kinase 1B (Homo sapiens, UniProt Q9Y463); assay: Navigating the Kinome. Panel member name: DYRK1B
[49] = target: Mitogen-activated protein kinase kinase kinase kinase 2 (Homo sapiens, UniProt Q12851);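 further: measured as one member of a kinome-wide kinase panel, with MAP4K2 as the panel entry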
[50] = target: Tyrosine-protein kinase JAK3 (Homo sapiens, UniProt P52333)
[51] = target: Mitogen-activated protein kinase 9 (Homo sapiens, UniProt P45984);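 further: value from a kinome panel profiling assay, MAPK9 panel entry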
[52] = target: Rho-associated protein kinase 1 (Homo sapiens, UniProt Q13464);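 further: measured within a broad kinome-wide panel profiling many kinases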
[53] = target: Dual specificity protein kinase CLK4 (Homo sapiens, UniProt Q9HAZ1)

Chain of Tyrosine-protein kinase Lck (P06239 whole entry): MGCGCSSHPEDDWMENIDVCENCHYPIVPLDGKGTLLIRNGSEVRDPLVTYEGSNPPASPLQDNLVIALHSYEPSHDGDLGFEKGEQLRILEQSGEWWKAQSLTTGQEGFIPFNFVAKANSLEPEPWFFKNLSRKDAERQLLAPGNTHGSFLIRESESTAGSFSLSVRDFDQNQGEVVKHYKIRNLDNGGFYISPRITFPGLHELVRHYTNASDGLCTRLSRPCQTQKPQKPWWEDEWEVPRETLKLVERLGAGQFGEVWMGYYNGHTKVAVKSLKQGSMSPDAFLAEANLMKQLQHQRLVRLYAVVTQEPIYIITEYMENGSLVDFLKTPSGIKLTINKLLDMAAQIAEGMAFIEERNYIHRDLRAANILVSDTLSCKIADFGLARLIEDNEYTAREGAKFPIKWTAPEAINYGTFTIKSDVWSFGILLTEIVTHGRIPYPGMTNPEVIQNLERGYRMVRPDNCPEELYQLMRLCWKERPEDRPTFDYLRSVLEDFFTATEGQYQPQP
Chain of Serine/threonine-protein kinase Nek2 (P51955 whole entry): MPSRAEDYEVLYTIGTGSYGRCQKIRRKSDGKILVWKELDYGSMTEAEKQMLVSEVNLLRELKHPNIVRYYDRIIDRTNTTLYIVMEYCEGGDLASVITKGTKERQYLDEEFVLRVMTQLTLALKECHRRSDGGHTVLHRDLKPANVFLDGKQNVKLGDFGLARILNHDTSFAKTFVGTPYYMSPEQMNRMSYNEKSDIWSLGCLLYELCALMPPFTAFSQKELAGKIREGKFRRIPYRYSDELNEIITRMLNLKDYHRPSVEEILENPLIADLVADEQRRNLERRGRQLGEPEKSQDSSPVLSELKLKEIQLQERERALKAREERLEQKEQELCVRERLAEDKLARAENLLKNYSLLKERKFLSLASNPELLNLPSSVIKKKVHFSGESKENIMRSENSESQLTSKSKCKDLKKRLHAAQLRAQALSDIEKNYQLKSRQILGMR
Chain of Calcium/calmodulin-dependent protein kinase type II subunit alpha (Q9UQM7 whole entry): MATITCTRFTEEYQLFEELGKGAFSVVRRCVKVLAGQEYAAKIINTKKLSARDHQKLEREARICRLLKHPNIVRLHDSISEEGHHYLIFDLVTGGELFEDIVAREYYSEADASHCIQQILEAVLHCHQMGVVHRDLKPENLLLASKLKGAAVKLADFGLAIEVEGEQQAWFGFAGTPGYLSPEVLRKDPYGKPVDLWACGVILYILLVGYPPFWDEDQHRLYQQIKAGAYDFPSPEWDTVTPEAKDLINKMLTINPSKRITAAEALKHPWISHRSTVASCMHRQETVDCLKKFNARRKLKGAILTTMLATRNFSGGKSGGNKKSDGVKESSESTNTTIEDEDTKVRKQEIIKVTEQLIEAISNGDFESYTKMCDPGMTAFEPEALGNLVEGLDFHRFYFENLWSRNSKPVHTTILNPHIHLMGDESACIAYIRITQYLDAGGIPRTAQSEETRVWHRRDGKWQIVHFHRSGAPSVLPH
Chain of Platelet-derived growth factor receptor alpha (P16234 whole entry): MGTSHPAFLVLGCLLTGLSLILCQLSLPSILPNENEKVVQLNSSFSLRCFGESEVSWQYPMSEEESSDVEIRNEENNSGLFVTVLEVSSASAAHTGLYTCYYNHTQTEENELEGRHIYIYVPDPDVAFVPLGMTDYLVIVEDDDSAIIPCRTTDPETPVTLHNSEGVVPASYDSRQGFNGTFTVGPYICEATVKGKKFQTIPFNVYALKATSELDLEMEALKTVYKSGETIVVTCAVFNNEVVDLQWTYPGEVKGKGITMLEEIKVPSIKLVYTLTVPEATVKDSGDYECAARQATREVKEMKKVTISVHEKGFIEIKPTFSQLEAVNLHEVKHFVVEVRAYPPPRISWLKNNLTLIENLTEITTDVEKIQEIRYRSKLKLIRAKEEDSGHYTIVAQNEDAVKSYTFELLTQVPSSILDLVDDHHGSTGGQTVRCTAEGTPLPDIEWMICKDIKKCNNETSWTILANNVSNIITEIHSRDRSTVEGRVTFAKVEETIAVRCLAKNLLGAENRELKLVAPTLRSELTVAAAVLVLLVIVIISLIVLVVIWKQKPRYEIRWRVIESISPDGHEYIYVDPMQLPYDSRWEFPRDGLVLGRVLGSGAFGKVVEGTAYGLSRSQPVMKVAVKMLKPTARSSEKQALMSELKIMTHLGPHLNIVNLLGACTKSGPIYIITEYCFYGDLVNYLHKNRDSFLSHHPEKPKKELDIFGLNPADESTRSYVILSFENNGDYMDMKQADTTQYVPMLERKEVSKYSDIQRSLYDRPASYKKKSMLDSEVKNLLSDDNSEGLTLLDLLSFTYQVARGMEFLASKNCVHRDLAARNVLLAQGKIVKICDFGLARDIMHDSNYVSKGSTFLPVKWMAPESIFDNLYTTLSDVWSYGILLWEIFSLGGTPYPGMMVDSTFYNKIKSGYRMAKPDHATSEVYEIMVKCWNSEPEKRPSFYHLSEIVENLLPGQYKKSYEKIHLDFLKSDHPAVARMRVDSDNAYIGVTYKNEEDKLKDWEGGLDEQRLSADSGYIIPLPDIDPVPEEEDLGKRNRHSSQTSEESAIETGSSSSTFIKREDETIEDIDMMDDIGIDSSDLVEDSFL
Chain of Glycogen synthase kinase-3 alpha (P49840 whole entry): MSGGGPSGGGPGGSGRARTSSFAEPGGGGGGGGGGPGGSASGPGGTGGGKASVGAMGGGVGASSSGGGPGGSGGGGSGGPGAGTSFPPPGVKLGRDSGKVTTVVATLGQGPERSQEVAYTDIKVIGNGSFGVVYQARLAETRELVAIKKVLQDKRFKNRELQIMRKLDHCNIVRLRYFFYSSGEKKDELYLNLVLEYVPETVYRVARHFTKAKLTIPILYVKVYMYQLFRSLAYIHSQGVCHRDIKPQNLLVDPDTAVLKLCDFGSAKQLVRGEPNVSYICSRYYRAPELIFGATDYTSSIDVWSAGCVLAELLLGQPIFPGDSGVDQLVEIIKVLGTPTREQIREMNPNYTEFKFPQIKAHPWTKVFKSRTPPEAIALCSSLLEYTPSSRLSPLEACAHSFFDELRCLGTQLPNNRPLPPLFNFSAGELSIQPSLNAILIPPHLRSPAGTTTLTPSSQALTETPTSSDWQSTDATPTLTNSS
Chain of Serine/threonine-protein kinase D3 (O94806 whole entry): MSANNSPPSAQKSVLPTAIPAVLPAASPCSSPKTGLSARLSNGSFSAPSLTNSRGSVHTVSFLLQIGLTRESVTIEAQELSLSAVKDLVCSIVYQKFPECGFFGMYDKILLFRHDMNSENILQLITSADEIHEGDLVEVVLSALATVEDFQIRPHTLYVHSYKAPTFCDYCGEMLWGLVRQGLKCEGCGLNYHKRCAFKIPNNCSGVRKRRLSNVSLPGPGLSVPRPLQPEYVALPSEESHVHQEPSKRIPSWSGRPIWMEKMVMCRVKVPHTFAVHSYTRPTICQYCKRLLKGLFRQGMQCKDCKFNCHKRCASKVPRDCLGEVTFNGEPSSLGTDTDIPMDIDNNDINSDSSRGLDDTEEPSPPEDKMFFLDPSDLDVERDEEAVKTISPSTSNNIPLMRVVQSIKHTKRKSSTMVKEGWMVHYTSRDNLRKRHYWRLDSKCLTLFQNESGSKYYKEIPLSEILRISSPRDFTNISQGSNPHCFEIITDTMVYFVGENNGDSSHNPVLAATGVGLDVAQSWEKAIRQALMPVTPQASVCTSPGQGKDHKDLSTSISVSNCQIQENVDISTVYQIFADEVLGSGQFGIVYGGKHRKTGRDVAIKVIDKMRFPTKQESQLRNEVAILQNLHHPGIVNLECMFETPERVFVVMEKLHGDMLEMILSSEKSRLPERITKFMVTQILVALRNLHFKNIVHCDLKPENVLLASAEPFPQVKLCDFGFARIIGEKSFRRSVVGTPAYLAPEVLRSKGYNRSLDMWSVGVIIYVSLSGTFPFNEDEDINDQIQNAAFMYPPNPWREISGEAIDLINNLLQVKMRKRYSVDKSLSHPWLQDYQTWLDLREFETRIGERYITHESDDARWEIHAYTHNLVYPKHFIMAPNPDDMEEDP
Chain of Mitogen-activated protein kinase kinase kinase kinase 2 (Q12851 whole entry): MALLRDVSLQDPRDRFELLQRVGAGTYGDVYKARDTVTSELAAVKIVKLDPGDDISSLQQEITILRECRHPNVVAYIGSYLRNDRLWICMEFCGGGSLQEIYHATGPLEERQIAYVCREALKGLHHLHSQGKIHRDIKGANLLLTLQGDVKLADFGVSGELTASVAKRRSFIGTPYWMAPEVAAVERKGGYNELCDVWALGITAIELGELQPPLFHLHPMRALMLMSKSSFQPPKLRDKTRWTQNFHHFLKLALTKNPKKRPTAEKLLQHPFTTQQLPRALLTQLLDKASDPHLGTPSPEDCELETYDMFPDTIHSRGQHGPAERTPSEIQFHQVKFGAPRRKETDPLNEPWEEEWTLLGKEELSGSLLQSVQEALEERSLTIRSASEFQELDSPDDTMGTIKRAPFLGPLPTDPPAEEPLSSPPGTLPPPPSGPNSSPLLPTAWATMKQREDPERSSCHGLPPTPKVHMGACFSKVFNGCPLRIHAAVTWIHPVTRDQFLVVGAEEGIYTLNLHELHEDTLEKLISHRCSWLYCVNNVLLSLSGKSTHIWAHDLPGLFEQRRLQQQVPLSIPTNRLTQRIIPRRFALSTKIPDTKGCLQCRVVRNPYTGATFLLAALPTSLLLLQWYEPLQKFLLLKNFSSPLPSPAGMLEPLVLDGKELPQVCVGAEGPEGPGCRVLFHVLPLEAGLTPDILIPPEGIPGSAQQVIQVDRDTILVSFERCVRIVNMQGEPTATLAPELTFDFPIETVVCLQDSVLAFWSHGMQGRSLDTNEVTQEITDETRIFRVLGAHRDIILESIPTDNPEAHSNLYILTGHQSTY
Chain of Casein kinase I isoform alpha (P48729 whole entry, canonical isoform): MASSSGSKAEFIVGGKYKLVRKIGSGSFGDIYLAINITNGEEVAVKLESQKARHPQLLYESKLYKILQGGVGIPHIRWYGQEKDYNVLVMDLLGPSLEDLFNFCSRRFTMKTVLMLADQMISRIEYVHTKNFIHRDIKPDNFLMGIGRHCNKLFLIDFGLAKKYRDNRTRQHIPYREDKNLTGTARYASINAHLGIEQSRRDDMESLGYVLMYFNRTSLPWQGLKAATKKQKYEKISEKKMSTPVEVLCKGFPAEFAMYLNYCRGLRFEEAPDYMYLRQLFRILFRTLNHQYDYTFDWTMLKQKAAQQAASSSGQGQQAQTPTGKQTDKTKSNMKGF

## CCC(=O)Nc1ccc(C(=O)N2CCNCC2)c(O)c1
[1]
  Ki: 398 nM (active)
[2]
  Ki: 794 nM (active)
[3]
  Ki: 50.1 nM (active)
[4]
  Ki: 79.4 nM (active)
[5]
  Ki: 631 nM (active)
[6]
  Ki: 251 nM (active)
[7]
  Ki: 316 nM (active)
[8]
  Ki: 316 nM (active)
[9]
  Ki: 126 nM (active)
[10]
  Ki: 316 nM (active)
[11]
  Ki: 1000 nM (active)
[12]
  Ki: > 2510 nM (inactive)
[13]
  Ki: 794 nM (active)
[14]
  Ki: 126 nM (active)
Activated CDC42 kinase 1
  Ki: 631 nM (active)
[15]
  Ki: 100 nM (active)
Activin receptor type-1
  Ki: > 3980 nM (inactive)
[16]
  Ki: > 3160 nM (inactive)
[17]
  Ki: 158 nM (active)
[18]
  Ki: 631 nM (active)
[19]
  Ki: 1580 nM (active)
[20]
  Ki: 100 nM (active)
[21]
  Ki: 501 nM (active)
[22]
  Ki: 1580 nM (active)
[23]
  Ki: 794 nM (active)
[24]
  Ki: 398 nM (active)
[25]
  Ki: 794 nM (active)
[26]
  Ki: 398 nM (active)
Aurora kinase A
  Ki: 158 nM (active)
[27]
  Ki: 501 nM (active)
Aurora kinase B
  Ki: 501 nM (active)
[28]
  Ki: 2510 nM (active)
[29]
  Ki: 1580 nM (active)
[30]
  Ki: 794 nM (active)
[31]
  Ki: 158 nM (active)
[32]
  Ki: 794 nM (active)
[33]
  Ki: 631 nM (active)
[34]
  Ki: 2000 nM (active)
[35]
  Ki: > 5010 nM (inactive)
[36]
  Ki: 2510 nM (active)
[37]
  Ki: 79.4 nM (active)
[38]
  Ki: 631 nM (active)
[39]
  Ki: > 3980 nM (inactive)
LIM domain kinase 1
  Ki: 501 nM (active)
[40]
  Ki: > 3980 nM (inactive)
[41]
  Ki: 251 nM (active)
[42]
  Ki: 1000 nM (active)
[43]
  Ki: 398 nM (active)
[44]
  Ki: 200 nM (active)
[45]
  Ki: 501 nM (active)
[46]
  Ki: 631 nM (active)
[47]
  Ki: 100 nM (active)
Focal adhesion kinase 1
  Ki: 3980 nM (active)
[48]
  Ki: 63.1 nM (active)
[49]
  Ki: 398 nM (active)
[50]
  Ki: 631 nM (active)
[51]
  Ki: 398 nM (active)
[52]
  Ki: 1000 nM (active)
[53]
  Ki: 39.8 nM (active)
